Data: patent US20230312605A1, “PYRROLO[2,1-F][1,2,4]TRIAZINES AND PREPARATION AND USES THEREOF” (BioSplice Therapeutics, Inc., priority 2021, published 2023)
pEC50: −log10 of the molar value. One block for each molecule: values may come before it.

What was measured:
[1] = test system: Tau phosphorylation at Thr212 (pThr212) in HEK293T cells transfected with DYRK1A and MAPT; assay: phosphoTau (Thr212) AlphaLISA tau phosphorylation cell assay; format: cell-based; details: HEK-293T, HEK293T cells transiently transfected with human DYRK1A and MAPT, compound treatment 18-24 hours, read-out: pTau (Thr212) EC50
Description: Representative compounds were screened using the assay procedure for tau phosphorylation activity described below.
HEK293T cells (ATCC, CRL3216) cultured in DMEM (Thermo Fisher Scientific, 10566024) supplemented with 10% FBS (Corning, 35-011-CV) and Penicillin/Streptomycin (Thermo Fisher Scientific, 15140163) were seeded in a 75 cm^2 flask at 8.1 × 10^6 cells/flask. The HEK293T cells were then transiently transfected with 5 µg DYRK1A (NM_001396) human untagged clone (OriGene, SC314641) and 2.5 µg MAPT (441 a.a. Tau gene) (NM_005910) human untagged clone (OriGene, TP313312) using Lipofectamine 3000 (Thermo Fisher Scientific, L30000015) and incubated for 20-30 hours in a humidified incubator at 37° C. and 5% CO^2. Post-incubation, HEK293T cells transfected with the DYRK1A and MAPT expression vectors were harvested and seeded in BioCoat poly-D lysine coated 96-well plates (Corning, 354461) at 3 × 10^4 cells/well.
The above synthesized compounds were screened using the cell assay procedure to assess decreased Tau phosphorylation at Thr212 (pThr212) described below.
Each compound was dissolved in DMSO (Sigma-Aldrich, D8418-100 mL) as a 10 mM stock. 10 mM stocks were serially diluted 1:3, 10-point dose-response curve and added to the cells with a final concentration ranging from 20 µM to 1.1 nM. Cells were treated with compounds in duplicate and incubated for 18-24 hours in a humidified incubator at 37° C. and 5% CO^2.
Following the overnight compound treatment, cells were lysed with 1X Alpha Surefire Ultra Lysis Buffer (Perkin Elmer, ALSU-LB-100ML) complemented with 1X Halt Phosphatase Inhibitor Cocktail (Thermo Fisher Scientific, 78427) and 1X Halt Protease Inhibitor Cocktail (Thermo Fisher Scientific, 78438). Lysates were spun down at 12,000 g for 10 min to remove any cellular debris and 5 µL of lysates were dispensed into a 384-well Opti-Plate (Perkin Elmer, 6007290) for the measurement of Tau phosphorylation in the phosphoTau (Thr212) AlphaLISA assay. Donor antibody, biotinylated HT7Tau (Thermo Fisher Scientific, MN1000B), and acceptor antibody, pThr212Tau (Thermo Fisher Scientific, 44740G) were both added to the cell lysates at a final concentration of 3 nM and incubated for 1 hour at room temperature. Following incubation of the lysates with the donor and acceptor antibodies, anti-rabbit IgG(Fc specific) AlphaLISA acceptor beads (Perkin Elmer, AL104C) were added at a 10 ug/mL final concentration and incubated for 1 hour at room temperature protected from light. Lastly, AlphaScreen streptavidin donor beads (PerkinElmer, 6760002) were added at 40 ug/mL final concentration and incubated for 1 hour at room temperature protected from light. Plates were read at Ex= […], and Em=615 nm on the EnVision Multilabel Plate Reader (Perkin Elmer)
phospho-Tau (Thr212) AlphaLISA signal was used to plot, draw the curve fitting, and determine each compound’s EC50 in Prism (GraphPad).

[2] = biological target: recombinant DYRK1A kinase (Homo sapiens (Human), UniProt Q13627); assay: DYRK1A kinase assay (Ser/Thr 18 peptide Z-lyte FRET assay); format: biochemical; details: recombinant DYRK1A 0.25 µg/mL, ATP 15 µM, Ser/Thr peptide 18 4 µM, one hour at room temperature; table head prints EC50, method says IC50
Summary of the method: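 Z-lyte FRET format: 1 h room-temperature reaction of 15 µM ATP, 4 µM Ser/Thr 18 peptide and 0.25 µg/mL recombinant human DYRK1A, in duplicate over 11 compound concentrations up to 10 µM. IC50 was derived by non-linear regression of percent phosphorylation calculated from coumarin/fluorescein emission ratios.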

SMILES: Cc1nc2ncc(-c3ccn4nc(NCC(C)(C)F)ncc34)cc2n1C1CCOCC1 [Compound 784, N-(2-Fluoro-2-methylpropyl)-5-(2-methyl-1-(tetrahydro-2H-pyran-4-yl)-1H-imidazo[4,5-b]pyridin-6-yl)pyrrolo[2,1-f] [1,2,4]triazin-2-amine]
pEC50 [1]: 6.29
pEC50 [2]: 7.96

SMILES: c1cnc2cc(-c3ccn4nc(NC5CC6(COC6)C5)ncc34)ccc2n1 [Compound 1418, 5-(Quinoxalin-6-yl)-N-(2-oxaspiro[3.3]heptan-6-yl)pyrrolo[2,1-f][1,2,4] triazin-2-amine]
pEC50 [1]: 6.67
pEC50 [2]: 7.96

SMILES: Cc1nc2ccc(-c3ccn4nc(NC5CCC(F)(F)CC5)ncc34)nc2n1CC(F)F [Compound 1108, N-(4,4-Difluorocyclohexyl)-5-(3-(2,2-difluoroethyl)-2-methyl-3H-imidazo [4,5-b]pyridin-5-yl)pyrrolo[2,1-f][1,2,4]triazin-2-amine]
pEC50 [1]: 6.90
pEC50 [2]: 8.10

SMILES: N[C@H]1CC[C@@H](Nc2ncc3c(-c4ccc5ncccc5c4)ccn3n2)CC1 [Compound 1332, cis-N^1-(5-(Quinolin-6-yl)pyrrolo[2,1-f][1,2,4]triazin-2-yl)cyclohexane-1,4-diamine]
pEC50 [1]: 6.28
pEC50 [2]: 7.70

SMILES: CO[C@H]1CC[C@@H](Nc2ncc3c(-c4ccc5nccnc5c4)ccn3n2)CC1 [Compound 1395, N-(cis-4-Methoxycyclohexyl)-5-(quinoxalin-6-yl)pyrrolo[2,1-f][1,2,4] triazin-2-amine]
pEC50 [1]: 6.42
pEC50 [2]: 7.96

SMILES: FC1(F)CCC(Nc2ncc3c(-c4ccc5nccn5c4)ccn3n2)CC1 [Compound 43, N-(4,4-Difluorocyclohexyl)-5-(imidazo[1,2-a]pyridin-6-yl)pyrrolo[2,1-f] [1,2,4]triazin-2-amine]
pEC50 [1]: 6.30
pEC50 [2]: 7.72

SMILES: c1cn2cc(-c3ccn4nc(NCC5CC5)ncc34)cnc2n1 [Compound 229, N-(Cyclopropylmethyl)-5-(imidazo[1,2-a]pyrimidin-6-yl)pyrrolo[2,1-f] [1,2,4]triazin-2-amine]
pEC50 [2]: 8.05

SMILES: COc1ncnc2ccc(-c3ccn4nc(NCC(C)(C)F)ncc34)cc12 [Compound 1423, N-(2-Fluoro-2-methylpropyl)-5-(4-methoxyquinazolin-6-yl)pyrrolo[2,1-f] [1,2,4]triazin-2-amine]
pEC50 [2]: 6.83

SMILES: Cc1nc2ccc(-c3ccn4nc(NC5CCN(CCF)CC5)ncc34)nc2n1CC(F)F [Compound 1849]
pEC50 [2]: 8.15

SMILES: Cc1nc2ccc(-c3ccn4nc(NC5CCN(C)CC5)ncc34)nc2n1CC(F)F [Compound 1131, 5-(3-(2,2-Difluoroethyl)-2-methyl-3H-imidazo[4,5-b]pyridin-5-yl)-N-(1-methylpiperidin-4-yl)pyrrolo[2,1-f][1,2,4]triazin-2-amine]
pEC50 [2]: 7.80

SMILES: Cc1nc2ccc(-c3ccn4nc(N[C@H]5CCN(C)C[C@H]5F)ncc34)nc2n1CC(F)F [Compound 1856]
pEC50 [2]: 8.22

SMILES: CC1(CNc2ncc3c(-c4ccc5nccn5c4)ccn3n2)CC1 [Compound 12, 5-(Imidazo[1,2-a]pyridin-6-yl)-N-((1-methylcyclopropyl)methyl)pyrrolo[2,1-f][1,2,4]triazin-2-amine]
pEC50 [2]: 7.35

SMILES: Cc1cnc2ncc(-c3ccn4nc(NC5CCC(F)(F)CC5)ncc34)cn12 [Compound 398, N-(4,4-Difluorocyclohexyl)-5-(3-methylimidazo[1,2-a]pyrimidin-6-yl) pyrrolo[2,1-f] [1,2,4]triazin-2-amine]
pEC50 [2]: 7.92

SMILES: Cc1nc2ccc(-c3ccn4nc(N[C@H]5CC[C@@H](CN6CC(F)C6)CC5)ncc34)nc2n1CC(F)F [Compound 1894, 5-(3-(2,2-Difluoroethyl)-2-methyl-3H-imidazo[4,5-b]pyridin-5-yl)-N-(cis-4-((3-fluoroazetidin-1-yl)methyl)cyclohexyl)pyrrolo [2,1-f] [1,2,4]triazin-2-amine]
pEC50 [2]: 7.96

SMILES: Cc1nc2ncc(-c3ccn4nc(NC5CCN(CCC(F)(F)F)CC5)ncc34)cc2n1CC(F)F [Compound 1883, 5-(1-(2,2-Difluoroethyl)-2-methyl-1H-imidazo[4,5-b]pyridin-6-yl)-N-(1-(3,3,3-trifluoropropyl)piperidin-4-yl)pyrrolo[2,1-f][1,2,4]triazin-2-amine]
pEC50 [2]: 8.05

SMILES: Cc1nc2ccc(-c3ccn4nc(NC5CCN(C6COC6)CC5)ncc34)nc2n1CC(F)F [Compound 1862, 5-(3-(2,2-Difluoroethyl)-2-methyl-3H-imidazo[4,5-b]pyridin-5-yl)-N-(1-(oxetan-3-yl)piperidin-4-yl)pyrrolo[2,1-f][1,2,4]triazin-2-amine]
pEC50 [2]: 8.22

SMILES: Cc1nc2ccc(-c3ccn4nc(N[C@H]5CC[C@@H](O)CC5)ncc34)nc2n1CC(F)F [Compound 1109, cis-4-((5-(3-(2,2-Difluoroethyl)-2-methyl-3H-imidazo[4,5-b]pyridin-5-yl)pyrrolo[2,1-f][1,2,4]triazin-2-yl)amino)cyclohexan-1-ol]
pEC50 [2]: 8.22

Stronger by pEC50 [2], values ahead:

pEC50 [2]: 8.30
SMILES: FC1(F)CCC(Nc2ncc3c(-c4cnc5nccn5c4)ccn3n2)CC1 [Compound 256, N-(4,4-Difluorocyclohexyl)-5-(imidazo[1,2-a]pyrimidin-6-yl)pyrrolo[2,1-f] [1,2,4]triazin-2-amine]
pEC50 [1]: 6.66

pEC50 [2]: 8.30
SMILES: Cc1nc2ccc(-c3ccn4nc(NCC(C)(C)F)ncc34)nc2n1C(C)C [Compound 1801, N-(2-Fluoro-2-methylpropyl)-5-(3-isopropyl-2-methyl-3H-imidazo[4,5-b]pyridin-5-yl)pyrrolo [2,1-f][1,2,4]triazin-2-amine]
pEC50 [1]: 6.82

pEC50 [2]: 8.40
SMILES: Cc1nc2ncc(-c3ccn4nc(NC5CCN(CC(F)F)CC5)ncc34)cc2n1CC(F)F [Compound 1882, 5-(1-(2,2-Difluoroethyl)-2-methyl-1H-imidazo[4,5-b]pyridin-6-yl)-N-(1-(2,2-difluoroethyl)piperidin-4-yl)pyrrolo[2,1-f][1,2,4]triazin-2-amine]

pEC50 [2]: 8.30
SMILES: Cc1nc2ccc(-c3ccn4nc(N[C@H]5C[C@@H](O)C5)ncc34)nc2n1CC(F)F [Compound 1720, cis-3-((5-(3-(2,2-Difluoroethyl)-2-methyl-3H-imidazo [4,5-b]pyridin-5-yl)pyrrolo[2,1-f] [1,2,4]triazin-2-yl)amino)cyclobutan-1-ol]

pEC50 [2]: 8.52
SMILES: Cc1nc2ncc(-c3ccn4nc(N[C@H]5CCN(C)C[C@@H]5F)ncc34)cc2n1CC(F)F [Compound 1886, 5-(1-(2,2-Difluoroethyl)-2-methyl-1H-imidazo[4,5-b]pyridin-6-yl)-N-((3S,4S)-3-fluoro-1-methylpiperidin-4-yl)pyrrolo[2,1-f][1,2,4]triazin-2-amine]

pEC50 [2]: 8.30
SMILES: Cc1nc2ccc(-c3ccn4nc(N[C@H]5CC[C@@H](CN6CCOCC6)CC5)ncc34)nc2n1CC(F)F [Compound 1842, 5-(3-(2,2-difluoroethyl)-2-methyl-3H-imidazo[4,5-b]pyridin-5-yl)-N-(cis-4-(morpholinomethyl)cyclohexyl)pyrrolo[2,1-f][1,2,4]triazin-2-amine]

pEC50 [2]: 8.30
SMILES: [2H]C([2H])([2H])O[C@H]1CC[C@@H](Nc2ncc3c(-c4cnc5nccn5c4)ccn3n2)CC1 [Compound 1802, 5-(Imidazo[1,2-a]pyrimidin-6-yl)-N-(cis-4-(methoxy-ds)cyclohexyl)pyrrolo [2,1-f][1,2,4] triazin-2-amine]

pEC50 [2]: 8.40
SMILES: CC(=O)N1CC[C@H](Nc2ncc3c(-c4ccc5nc(C)n(CC(F)F)c5n4)ccn3n2)[C@H](F)C1 [Compound 1952, 1-((3R,4S)-4-((5-(3-(2,2-Difluoroethyl)-2-methyl-3H-imidazo[4,5-b]pyridin-5-yl)pyrrolo[2,1-f] [1,2,4]triazin-2-yl)amino)-3-fluoropiperidin-1-yl)ethan-1-one]
